From ChEMBL document CHEMBL3792292, “Development of a potent and selective FLT3 kinase inhibitor by systematic expansion of a non-selective fragment-screening hit” (Bioorg Med Chem Lett, 2016) come the findings set out here.

The target in assay [1] is Ephrin type-A receptor 2 (Homo sapiens) (UniProt P29317). Nature of the assay: Inhibition of human N-terminal GST-tagged EPHA2 cytoplasmic domain (572 to 976 residues) expressed in baculovirus expression system using fluorescence labelled Blk/Lyntide as substrate at 50 times IC50 by electrophoretic mobility shift assay relative to control.
For assay [2], the target named is T1, Ephrin type-B receptor 4 (Homo sapiens) (UniProt P54760).
T1 sequence (whole entry): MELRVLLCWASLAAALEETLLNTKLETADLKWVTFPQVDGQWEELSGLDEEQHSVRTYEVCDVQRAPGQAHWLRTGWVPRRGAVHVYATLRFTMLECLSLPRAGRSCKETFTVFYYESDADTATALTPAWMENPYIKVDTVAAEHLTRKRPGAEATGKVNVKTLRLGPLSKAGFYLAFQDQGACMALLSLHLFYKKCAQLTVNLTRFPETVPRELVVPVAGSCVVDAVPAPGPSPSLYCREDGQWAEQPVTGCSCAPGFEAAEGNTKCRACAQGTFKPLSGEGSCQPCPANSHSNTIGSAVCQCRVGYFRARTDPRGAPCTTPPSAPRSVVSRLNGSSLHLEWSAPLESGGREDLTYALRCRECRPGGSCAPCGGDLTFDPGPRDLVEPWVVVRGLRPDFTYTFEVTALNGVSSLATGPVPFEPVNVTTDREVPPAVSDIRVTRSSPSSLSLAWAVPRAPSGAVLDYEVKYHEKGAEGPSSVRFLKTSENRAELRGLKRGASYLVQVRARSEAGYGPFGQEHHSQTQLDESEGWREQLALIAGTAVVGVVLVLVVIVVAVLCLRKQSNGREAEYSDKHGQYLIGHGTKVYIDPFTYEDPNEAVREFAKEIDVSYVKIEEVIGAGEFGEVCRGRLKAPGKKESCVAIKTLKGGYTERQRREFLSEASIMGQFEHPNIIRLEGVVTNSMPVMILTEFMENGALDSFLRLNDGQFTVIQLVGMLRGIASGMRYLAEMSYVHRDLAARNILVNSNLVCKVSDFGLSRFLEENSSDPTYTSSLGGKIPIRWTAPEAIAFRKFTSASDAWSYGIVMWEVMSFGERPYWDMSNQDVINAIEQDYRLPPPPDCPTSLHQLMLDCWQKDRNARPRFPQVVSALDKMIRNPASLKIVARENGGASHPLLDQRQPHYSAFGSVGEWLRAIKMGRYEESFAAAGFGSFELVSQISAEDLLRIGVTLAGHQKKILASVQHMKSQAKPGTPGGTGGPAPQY
As to the kind of experiment: Inhibition of human N-terminal GST-tagged EPHB4 cytoplasmic domain (577 to 987 residues) expressed in baculovirus expression system using fluorescence labelled Blk/Lyntide as substrate at 50 times IC50 by electrophoretic mobility shift assay relative to control.

Assay [3] addresses T2, Tyrosine-protein kinase JAK3 (Homo sapiens) (UniProt P52333).
T2 sequence (whole entry): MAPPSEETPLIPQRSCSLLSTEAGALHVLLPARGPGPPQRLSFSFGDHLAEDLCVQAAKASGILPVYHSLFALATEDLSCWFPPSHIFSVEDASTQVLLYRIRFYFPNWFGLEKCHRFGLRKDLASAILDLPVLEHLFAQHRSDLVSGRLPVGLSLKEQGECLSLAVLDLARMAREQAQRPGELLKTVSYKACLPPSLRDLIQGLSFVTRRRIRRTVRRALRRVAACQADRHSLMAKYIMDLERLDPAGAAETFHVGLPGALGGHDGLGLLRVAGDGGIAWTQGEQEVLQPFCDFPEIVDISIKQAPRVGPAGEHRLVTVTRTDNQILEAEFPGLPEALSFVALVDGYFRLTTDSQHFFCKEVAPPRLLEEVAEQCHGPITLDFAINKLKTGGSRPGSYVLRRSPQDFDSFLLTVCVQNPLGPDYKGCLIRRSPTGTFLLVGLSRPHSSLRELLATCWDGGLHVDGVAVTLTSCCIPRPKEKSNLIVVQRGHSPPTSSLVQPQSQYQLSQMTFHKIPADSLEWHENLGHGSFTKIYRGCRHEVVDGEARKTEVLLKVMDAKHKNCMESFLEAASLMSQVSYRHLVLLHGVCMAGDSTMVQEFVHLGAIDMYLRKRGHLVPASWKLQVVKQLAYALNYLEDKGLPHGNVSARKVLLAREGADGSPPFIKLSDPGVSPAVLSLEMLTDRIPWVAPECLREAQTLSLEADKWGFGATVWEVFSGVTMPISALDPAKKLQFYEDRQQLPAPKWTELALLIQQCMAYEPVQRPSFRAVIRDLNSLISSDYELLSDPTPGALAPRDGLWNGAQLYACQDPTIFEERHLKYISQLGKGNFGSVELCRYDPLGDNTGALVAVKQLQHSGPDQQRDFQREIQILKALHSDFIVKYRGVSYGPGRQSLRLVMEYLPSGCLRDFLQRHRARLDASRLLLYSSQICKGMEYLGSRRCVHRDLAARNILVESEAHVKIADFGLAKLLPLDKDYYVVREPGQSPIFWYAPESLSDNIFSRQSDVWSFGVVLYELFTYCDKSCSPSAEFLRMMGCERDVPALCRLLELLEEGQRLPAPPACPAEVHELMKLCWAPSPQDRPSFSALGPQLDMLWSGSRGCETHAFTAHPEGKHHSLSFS
As to the kind of experiment: Inhibition of human N-terminal His-tagged JAK3 catalytic domain (795 to 1124 residues) expressed in baculovirus expression system using fluorescence labelled srctide as substrate at 50 times IC50 by electrophoretic mobility shift assay relative to control.

Assay [4] addresses Mitogen-activated protein kinase 14 (Homo sapiens) (UniProt Q16539). As to the kind of experiment: Inhibition of human N-terminal GST-tagged p38alpha (9 to 352 residues) expressed in Escherichia coli using fluorescence labelled modified Erktide as substrate at 50 times IC50 by electrophoretic mobility shift assay relative to control.
Assay [5] has as its target T3, Serine/threonine-protein kinase Sgk1 (Homo sapiens) (UniProt O00141).
T3 sequence (whole entry): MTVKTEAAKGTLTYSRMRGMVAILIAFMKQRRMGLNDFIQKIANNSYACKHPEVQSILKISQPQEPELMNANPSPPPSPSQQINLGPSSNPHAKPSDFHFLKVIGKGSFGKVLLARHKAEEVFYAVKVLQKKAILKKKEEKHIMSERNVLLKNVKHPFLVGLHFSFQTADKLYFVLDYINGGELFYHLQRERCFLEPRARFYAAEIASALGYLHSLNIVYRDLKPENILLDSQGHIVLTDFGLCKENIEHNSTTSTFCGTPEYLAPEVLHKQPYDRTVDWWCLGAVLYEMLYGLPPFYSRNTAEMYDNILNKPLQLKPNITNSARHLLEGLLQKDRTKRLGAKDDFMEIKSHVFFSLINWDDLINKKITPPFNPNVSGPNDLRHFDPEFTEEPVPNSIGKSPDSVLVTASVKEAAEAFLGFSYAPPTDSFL
As to the kind of experiment: Inhibition of human N-terminal GST-tagged SGK (61 to 431 residues) expressed in baculovirus expression system coexpressing His-tagged PDK1 (1 to 556 residues) using fluorescence labelled SGKtide as substrate at 50 times IC50 by electrophoretic mobility shift assay relative to control.

Chain of Ephrin type-A receptor 2 (Homo sapiens) (P29317 whole entry, the tested form may be a part): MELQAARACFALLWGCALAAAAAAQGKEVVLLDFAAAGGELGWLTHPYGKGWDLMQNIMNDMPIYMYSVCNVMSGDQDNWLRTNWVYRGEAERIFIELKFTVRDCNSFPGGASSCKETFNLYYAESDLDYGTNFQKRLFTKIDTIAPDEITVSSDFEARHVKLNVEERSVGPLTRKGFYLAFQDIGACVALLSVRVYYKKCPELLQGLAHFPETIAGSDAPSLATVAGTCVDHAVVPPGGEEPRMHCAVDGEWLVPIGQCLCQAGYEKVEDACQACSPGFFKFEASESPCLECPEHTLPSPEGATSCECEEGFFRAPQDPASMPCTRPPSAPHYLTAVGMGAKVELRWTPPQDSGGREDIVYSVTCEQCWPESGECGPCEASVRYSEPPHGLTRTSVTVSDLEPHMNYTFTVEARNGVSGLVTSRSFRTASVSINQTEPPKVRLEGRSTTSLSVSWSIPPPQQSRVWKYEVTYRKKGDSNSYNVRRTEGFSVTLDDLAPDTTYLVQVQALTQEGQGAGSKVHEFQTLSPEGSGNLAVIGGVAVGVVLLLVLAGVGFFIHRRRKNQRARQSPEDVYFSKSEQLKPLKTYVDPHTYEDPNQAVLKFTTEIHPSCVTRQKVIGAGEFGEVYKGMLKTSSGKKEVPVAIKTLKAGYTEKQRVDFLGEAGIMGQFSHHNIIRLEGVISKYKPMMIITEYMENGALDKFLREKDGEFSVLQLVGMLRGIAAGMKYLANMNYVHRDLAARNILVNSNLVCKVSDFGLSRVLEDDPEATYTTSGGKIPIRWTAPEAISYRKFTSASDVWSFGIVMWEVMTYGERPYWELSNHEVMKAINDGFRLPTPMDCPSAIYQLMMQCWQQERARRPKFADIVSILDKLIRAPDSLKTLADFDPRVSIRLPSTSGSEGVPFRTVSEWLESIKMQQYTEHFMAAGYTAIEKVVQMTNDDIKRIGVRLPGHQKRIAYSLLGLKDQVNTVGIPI
Chain of Mitogen-activated protein kinase 14 (Homo sapiens) (Q16539 whole entry, the tested form may be a part): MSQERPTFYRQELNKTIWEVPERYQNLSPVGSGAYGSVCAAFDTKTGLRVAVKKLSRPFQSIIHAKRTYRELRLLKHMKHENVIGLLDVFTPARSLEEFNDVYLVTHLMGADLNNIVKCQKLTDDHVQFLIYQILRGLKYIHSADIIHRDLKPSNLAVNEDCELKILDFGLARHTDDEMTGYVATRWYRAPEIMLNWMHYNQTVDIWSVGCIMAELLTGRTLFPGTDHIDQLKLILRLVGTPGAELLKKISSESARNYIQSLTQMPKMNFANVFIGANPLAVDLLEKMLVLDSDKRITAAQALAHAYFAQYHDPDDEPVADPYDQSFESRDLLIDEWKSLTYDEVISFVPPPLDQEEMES

For the compound `O=C(Nc1ccc(CN2CCN(c3ccccc3)CC2)cc1)c1n[nH]c2ccccc12`, the inhibition in assay [1] was 0.9%; in assay [2], -0.4%; in assay [3], 9%; in assay [4] it was -2.6%; in assay [5], 11.9%.

For `O=C(Nc1ccc(C(=O)N2CCN(c3ccccc3)CC2)cc1)c1n[nH]c2ccccc12`, the inhibition in assay [1] is -1.6%; in assay [2], -1.2%; in assay [3] it was 26.4%; in assay [4], -1.8%; in assay [5] it was 26.3%.

Consider `O=C(Nc1ccccc1)c1n[nH]c2ccccc12`, for which the inhibition in assay [1] was 0.6%; in assay [2], 0.4%; in assay [3] it was 51.9%; in assay [4], 6.9%; in assay [5], 42.4%.
